Our source for the LC50 values is patent US20260198495A1, “BINARY INSECTICIDE COMPOSITION AND USE THEREOF” (SHENYANG SINOCHEM AGROCHEMICALS R & D CO., LTD., priority 2022, published 2026).

Format in all cases: in vivo
Test [1] has as its system 2nd-instar larvae of Plutella xylostella. Put plainly: Joint toxicity of I-72 + beta-cypermethrin, Example 43, Table 43. Particulars: in Brassica oleracea, foliar, 72 h. How it is done:
(§1) Preparation of the pesticide solution: according to different test requirements, the test samples were accurately weighed respectively with an electronic analytical balance. The technical pesticides were dissolved in acetone, and then diluted with 0.1% Tween 80 water into a series of pesticide solutions with a certain concentration gradient according to the experimental design dosage.
Experimental method: first, cabbage leaves were selected and dipped in the prepared pesticide solution for 10 s in the order from low dosage to high dosage according to the experimental design. After natural air-drying in the shade, they were placed in a 9-cm-diameter Petri dish with filter paper, and uniform and healthy test insects were introduced, with 10 insects for each treatment and 3 replicates for each treatment. In addition, a blank control was set up.
The treated test materials were placed in an observation room, and the temperature, humidity and illumination of the observation room could be adjusted as needed. The number of dead and live insects was investigated 72 hours later.

Test [2] concerns adult Phyllotreta vittuta Fabr. Put plainly: Joint toxicity of I-72 + cyantraniliprole, Example 63, Table 63. Particulars: A = compound I-72, B = cyantraniliprole; potted cabbage seedling spraying; 72 hours; read-out: LC50. On the procedure:
Test target: adult Phyllotreta vittuta Fabr.
as §1
Experimental method: first, uniform and consistent potted cabbage seedlings were selected. Then, uniform spraying was performed with the pesticide solution in the order from low dosage to high dosage according to the experimental design. After air-drying in the shade, adult flea beetles were transferred onto the treated cabbage seedlings, and then glass covers were put on them, with about 30-40 adult flea beetles on each seedling and 3 replicates for each treatment. In addition, a blank control was set up.
The treated test materials were placed in an observation room, and the temperature, humidity and illumination of the observation room could be adjusted as needed. The number of dead and live insects was investigated 72 hours later. […] Then, the co-toxicity coefficient of each ratio was calculated using the Sun Y-P method to evaluate the mixing effect (the same as in Example 1).

Test [3] deals with 3rd-instar larvae of Pyrausta nubilalis Hubern. Put plainly: Joint toxicity of I-72 + metaflumizone, artificial diet-pesticide film, Example 2, Table 2. Particulars: Ostrinia nubilalis, 72 h, A = compound I-72, B = metaflumizone, read-out: LC50. How it is done: Test subject: 3rd-instar larvae of Pyrausta nubilalis Hubern, a sensitive strain reared indoors.
Experimental method: the artificial diet-pesticide film method was adopted. A standard clean 24-well culture plate was selected. 1 ml of artificial diet was added to each well. After the diet cooled and solidified, a quantitative amount of a pesticide solution was added to the culture plate using a continuous sampler, and then it was air-dried naturally in the shade. The standard test insects were introduced, with 1 insect in each well, a total of 48 insects. The treated test insects were placed in an observation room under certain conditions. The reaction of the test insects was regularly observed, and the number of dead and live insects was investigated 72 h later.
The test conditions, the preparation method of the pesticide solution, and the evaluation method (Sun Y-P) for the joint action type of the mixture were the same as those in Example 1.

The test system of test [4] is adult Tetranychus urticae Koch. Put plainly: Joint toxicity of I-72 + cyetpyrafen, Example 85, Table 85. The following applies: Tetranychus urticae; A = compound I72, B = cyetpyrafen; potted-seedling spraying; 72 hours; read-out: LC50. How it is done: Test target: adult Tetranychus urticae Koch, a sensitive strain reared indoors.
as §1
Experimental method: the activity of the mixture against the adult Tetranychus urticae Koch was determined by adopting the potted-seedling spraying method. First, the adult Tetranychus urticae Koch of uniform size were transferred onto the leaves of kidney bean seedlings at the stage when the first pair of true leaves was fully expanded. After the adult mites had stabilized, the base number was counted. Then, the uniform spraying was performed with the pesticide solution in the order from low to high dose according to the experimental design, with 1.5 mL for each seedling and 3 replicates for each treatment. […]
The treated test materials were placed in an observation room, and the temperature, humidity and illumination of the observation room could be adjusted as needed. […] Then, the co-toxicity coefficient of each ratio was calculated using the Sun Y-P method to evaluate the mixing effect (the same as in Example 1).

For test [5], the system named is 3rd-instar larvae of Spodoptera exigua Hübner. Put plainly: Joint toxicity of I-72 + emamectin benzoate, leaf-disk dipping, Example 9, Table 9. Particulars: Spodoptera exigua, cabbage leaf-disk dipping, 72 h, A = compound I-72, B = emamectin benzoate, read-out: LC50. From the text:
Test subject: 3rd-instar larvae of Spodoptera exigua Hübner, a sensitive strain reared indoors.
Experimental method: the dipping method was adopted. The cabbage leaves cultivated in the greenhouse were taken, the surface wax layer was removed, and leaf disks with a diameter of 3 cm were made with a puncher. The leaf disks were dipped in the prepared pesticide solution for 10 s, and then put into a 9-cm-diameter Petri dish lined with filter paper. After natural air-drying in the shade, the standard test insects were introduced, with 10 insects placed in each dish and 3 replicates performed. The treated test insects were placed in an observation room under certain conditions. The reaction of the test insects was regularly observed, and the number of dead and live insects was investigated 72 h later.
(§2) The test conditions, the preparation of the pesticide solution and the evaluation method were the same as those in Example 1.

In test [6] the test system is adult Phyllotreta striolata (Walker). Put plainly: Joint toxicity of I-72 + rotenone, insect dipping, Example 35, Table 35. The following applies: A = compound I-72, B = rotenone, insect dipping 10 s, read-out: LC50.
From the text: Test target: adult Phyllotreta striolata (Walker), a strain reared indoors.
Experimental method: the dipping method was adopted. Adult flea beetles of uniform size were put into an insect-dipping cage and dipped for 10 s in the order from low dosage to high dosage according to the experimental design, with 30 beetles for each treatment. The beetles were placed in a 9-cm-diameter Petri dish with filter paper, with 3 replicates for each treatment. In addition, a blank control was set up. The treated test materials were placed in an observation room, and the temperature, humidity and illumination of the observation room could be adjusted as needed.
as §2

Test [7] deals with 3rd-instar larvae of Agrotis ipsilon (Rottemberg). Put plainly: whole plant or invertebrate. The following applies: Agrotis ipsilon; A = compound I-72, B = metalaxyl-M; insect-dipping; 72 hours; read-out: LC50. On the procedure:
Test conditions: temperature: 24-26° C., humidity: RH 60%, and illumination: L:D=14:10
as §1
The target insects were dipped into the pesticide solution for 10 s and then taken out. Excess pesticide solution was absorbed with filter paper. […] A treatment without the pesticide was set as the blank control.
The number of dead and live insects was investigated 72 hours later. The corrected mortality rate was calculated using the Abbott's formula, and statistical analysis was performed with the DPS data processing software to obtain the toxicity regression equation and LC50 value of each single test pesticide and each mixture of different ratios.

In brackets after ≈: the same amount, converted by molar mass.

In general, LC50 refers to the concentration lethal to half of the exposed cells or organisms.

Turning to `CN(C(=O)c1ccc2c(c1)OC(F)(F)O2)c1cccc(C(=O)Nc2c(Br)cc(C(F)(C(F)(F)F)C(F)(F)F)cc2OC(F)F)c1F` [Compound I-72], the LC50 in test [1] was found to be 0.0897 µg/mL; in test [2], 1.16 µg/mL; in test [3], 0.67 µg/mL; in test [4], 40.4 µg/mL; in test [5], 0.241 µg/mL; in test [6], 1.81 µg/mL. For the same molecule, the LC50 in test [7] was 0.265 µg/mL (≈ 0.357 µM).
